Test results reported in US10766902B2, “Wee-1 inhibiting pyrazolopyrimidinone compounds” (ALMAC DISCOVERY LIMITED, priority 2016, dated 2020).

Target: Wee-1 kinase (Homo sapiens (Human), UniProt P30291)
Assay: Measurement of Wee-1 kinase activity (ADP-Glo luminescence)
Format: biochemical
Details: read-out: Wee1 IC50
Description: Method 1: Measurement of Wee-1 Kinase Activity
In the measurement of Wee-1 activity, a commercial peptide Poly(Lys Tyr(4:1)) hydrobromide was purchased from Sigma Aldrich and used as the substrate. Activated Wee-1 kinase was purchased from Invitrogen (PV3817) and an ADP-Glo luminescent kit was purchased from Promega.
All reactions took place in […] volumes in reaction buffer containing 40 mM Tris-HCl and 20 mM magnesium chloride, supplemented with 0.1 mg/mL bovine serum albumin and 2 mM DTT. Compounds were serially diluted in buffer and 5 μL of each concentration pipetted into a white 384 well plate (Sigma Aldrich M6186). A 5 μL aliquot of the Wee-1 enzyme was added to each well and the plate centrifuged for 1 min to ensure mixing of the enzyme and inhibitor.
The plate was incubated at room temperature for 30 minutes before the addition of 2.0 μg/mL of substrate and 30 μM ATP in a 5 μL aliquot. The plate was centrifuged for one minute and incubated for 1 h at RT.
15 μL of ADP-Glo stop reagent was added to each well to quench the reaction and deplete unconverted ATP. The plate was incubated for a further 40 min in the dark at RT.
30 μL of ADP-Glo kinase detection reagent was added to each well, converting ADP to ATP, catalysing the generation of luciferin by luciferase. The plate was shaken for 1 min, and incubated in the dark for an additional hour.
Luminescence from each well was detected using the Biotek Synergy4 HD plate reader and the percentage inhibition of kinase activity calculated for each inhibitor tested. Positive (kinase only) and negative (no kinase) controls were added to each plate to ensure specific interaction of kinase and inhibitor. The IC50 concentration for each inhibitor was calculated by plotting the percentage kinase inhibition against concentration of inhibitor and the curve generated by non-linear regression fitting.

Chain of Wee-1 kinase (P30291 whole entry): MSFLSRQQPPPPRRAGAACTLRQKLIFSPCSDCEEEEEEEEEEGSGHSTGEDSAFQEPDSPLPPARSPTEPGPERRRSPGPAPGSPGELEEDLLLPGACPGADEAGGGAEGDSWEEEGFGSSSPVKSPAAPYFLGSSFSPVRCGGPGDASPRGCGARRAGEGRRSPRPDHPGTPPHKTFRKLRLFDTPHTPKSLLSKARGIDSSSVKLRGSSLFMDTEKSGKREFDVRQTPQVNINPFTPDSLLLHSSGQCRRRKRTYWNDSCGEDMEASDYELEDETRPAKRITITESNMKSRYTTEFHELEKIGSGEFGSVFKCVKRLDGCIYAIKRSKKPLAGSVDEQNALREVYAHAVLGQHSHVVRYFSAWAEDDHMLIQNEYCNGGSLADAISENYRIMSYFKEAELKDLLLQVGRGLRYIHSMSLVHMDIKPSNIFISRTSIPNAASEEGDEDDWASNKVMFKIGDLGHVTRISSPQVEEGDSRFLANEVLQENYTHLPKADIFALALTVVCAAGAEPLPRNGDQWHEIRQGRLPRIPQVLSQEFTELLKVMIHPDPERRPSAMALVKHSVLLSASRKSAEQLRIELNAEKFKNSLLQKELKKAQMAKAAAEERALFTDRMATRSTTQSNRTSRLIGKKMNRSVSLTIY

Structure (SMILES)	IC50 [nM]
C=CCn1c(=O)c2cnc(Nc3ccc(N4C[C@@H](C)O[C@@H](C)C4)cc3)nc2n1-c1cccc(N=S(C)(C)=O)n1 [Example 32, 1-(6-{[Dimethyl(oxo)-λ^6-sulfanylidene]amino}pyridin-2-yl)-6-{4-([(2S,6R)-2,6-dimethylmorpholin-4-yl]phenyl)amino}-2-(prop-2-en-1-yl)-1H,2H,3H-pyrazolo[3,4-d]pyrimidin-3-one]	0.5
C=CCn1c(=O)c2cnc(Nc3ccc(N4CCC(F)(F)CC4)cc3)nc2n1-c1cccc(N=S(C)(C)=O)n1 [Example 34, 1-(6-{[Dimethyl(oxo)-λ^6-sulfanylidene]amino}pyridin-2-yl)-6-{[4-(4,4-difluoropiperidin-1-yl)phenyl]amino}-2-(prop-2-en-1-yl)-1H,2H,3H-pyrazolo[3,4-d]pyrimidin-3-one]	4.6
C=CCn1c(=O)c2cnc(Nc3cccc(N4CCOCC4)c3)nc2n1-c1cccc(N=S(C)(C)=O)n1 [Example 35, 1-(6-{[Dimethyl(oxo)-λ^6-sulfanylidene]amino}pyridin-2-yl)-6-{[3-(morpholin-4-yl)phenyl]amino}-2-(prop-2-en-1-yl)-1H,2H,3H-pyrazolo[3,4-d]pyrimidin-3-one]	0.6
C=CCn1c(=O)c2cnc(Nc3ccc(N4CC5CCC(C4)O5)cc3)nc2n1-c1cccc(N=S(C)(C)=O)n1 [Example 36, 1-(6-{[Dimethyl(oxo)-λ^6-sulfanylidene]amino}pyridin-2-yl)-6-{[4-(8-oxa-3-azabicyclo[3.2.1]octan-3-yl)phenyl]amino}-2-(prop-2-en-1-yl)-1H,2H,3H-pyrazolo[3,4-d]pyrimidin-3-one]	0.1
C=CCn1c(=O)c2cnc(Nc3cnn(C)c3)nc2n1-c1cccc(N=S(C)(C)=O)n1 [Example 37, 1-(6-{[Dimethyl(oxo)-λ^6-sulfanylidene]amino}pyridin-2-yl)-6-[(1-methyl-1H-pyrazol-4-yl)amino]-2-(prop-2-en-1-yl)-1H,2H,3H-pyrazolo[3,4-d]pyrimidin-3-one]	1.3
CCCn1c(=O)c2cnc(Nc3ccc(N4CCOCC4)cc3)nc2n1-c1cccc(N=S(C)(C)=O)n1 [Example 38, 1-(6-{[Dimethyl(oxo)-λ^6-sulfanylidene]amino}pyridin-2-yl)-6-{[4-(morpholin-4-yl)phenyl]amino}-2-propyl-1H,2H,3H-pyrazolo[3,4-d]pyrimidin-3-one]	0.8
CCCn1c(=O)c2cnc(Nc3ccc(N4CCOCC4)nc3)nc2n1-c1cccc(N=S(C)(C)=O)n1 [Example 39, 1-(6-{[Dimethyl(oxo)-λ^6-sulfanylidene]amino}pyridin-2-yl)-6-{[6-(morpholin-4-yl)pyridin-3-yl]amino}-2-propyl-1H,2H,3H-pyrazolo[3,4-d]pyrimidin-3-one]	1.7
C=CCn1c(=O)c2cnc(Nc3ccc(F)cc3)nc2n1-c1cccc(N=S(C)(C)=O)n1 [Example 40, 1-(6-{[Dimethyl(oxo)-λ^6-sulfanylidene]amino}pyridin-2-yl)-6-[(4-fluorophenyl)amino]-2-(prop-2-en-1-yl)-1H,2H,3H-pyrazolo[3,4-d]pyrimidin-3-one]	0.2
CC(C)n1c(=O)c2cnc(Nc3ccc(F)cc3)nc2n1-c1cccc(N=S(C)(C)=O)n1 [Example 41, 1-(6-{[Dimethyl(oxo)-λ^6-sulfanylidene]amino}pyridin-2-yl)-6-[(4-fluorophenyl)amino]-2-(propan-2-yl)-1H,2H,3H-pyrazolo[3,4-d]pyrimidin-3-one]	4.9
COc1ccc(Nc2ncc3c(=O)n(C(C)C)n(-c4cccc(N=S(C)(C)=O)n4)c3n2)cc1 [Example 42, 1-(6-{[Dimethyl(oxo)-λ^6-sulfanylidene]amino}pyridin-2-yl)-6-[(4-methoxyphenyl)amino]-2-(propan-2-yl)-1H,2H,3H-pyrazolo[3,4-d]pyrimidin-3-one]	1.1
CC(C)n1c(=O)c2cnc(Nc3ccc(N4CCOCC4)cc3)nc2n1-c1cccc(N=S(C)(C)=O)n1 [Example 43, 1-(6-{[Dimethyl(oxo)-λ^6-sulfanylidene]amino}pyridin-2-yl)-6-{[4-(morpholin-4-yl)phenyl]amino}-2-(propan-2-yl)-1H,2H,3H-pyrazolo[3,4-d]pyrimidin-3-one]	0.4
C=CCn1c(=O)c2cnc(Nc3ccc(N4CCOCC4)cc3)nc2n1-c1cncc(N=S(C)(C)=O)c1 [Example 44, 1-(5-{[Dimethyl(oxo)-λ^6-sulfanylidene]amino}pyridin-3-yl)-6-{[4-(morpholin-4-yl)phenyl]amino}-2-(prop-2-en-1-yl)-1H,2H,3H-pyrazolo[3,4-d]pyrimidin-3-one]	20.3
CC(C)n1c(=O)c2cnc(Nc3ccc(N4CCCNCC4)cc3)nc2n1-c1cccc(N=S(C)(C)=O)n1 [Example 46, 6-{[4-(1,4-Diazepan-1-yl)phenyl]amino}-1-(6-{[dimethyl(oxo)-λ^6-sulfanylidene]amino}pyridin-2-yl)-2-(propan-2-yl)-1H,2H,3H-pyrazolo[3,4-d]pyrimidin-3-one]	0.9
CC(C)n1c(=O)c2cnc(NC3CCC3)nc2n1-c1cccc(N=S(C)(C)=O)n1 [Example 47, 6-(Cyclobutylamino)-1-(6-{[dimethyl(oxo)-λ^6-sulfanylidene]amino}pyridin-2-yl)-2-(propan-2-yl)-1H,2H,3H-pyrazolo[3,4-d]pyrimidin-3-one]	67
CC(C)n1c(=O)c2cnc(Nc3ccc(N4CCNC(=O)C4)cc3)nc2n1-c1cccc(N=S(C)(C)=O)n1 [Example 48, 4-(4-{[1-(6-{[Dimethyl(oxo)-λ^6-sulfanylidene]amino}pyridin-2-yl)-3-oxo-2-(propan-2-yl)-1H,2H,3H-pyrazolo[3,4-d]pyrimidin-6-yl]amino}phenyl)piperazin-2-one]	0.9
CC(C)n1c(=O)c2cnc(Nc3ccc(N4CCN(CC(F)(F)F)CC4)cc3)nc2n1-c1cccc(N=S(C)(C)=O)n1 [Example 50, 1-(6-{[Dimethyl(oxo)-λ^6-sulfanylidene]amino}pyridin-2-yl)-2-(propan-2-yl)-6-({4-[4-(2,2,2-trifluoroethyl)piperazin-1-yl]phenyl}amino)-1H,2H,3H-pyrazolo[3,4-d]pyrimidin-3-one]	0.4
C=CCn1c(=O)c2cnc(Nc3ccc(N4CCOCC4)cc3)nc2n1-c1cncc(N=S(C)(C)=O)n1 [Example 51, 1-(6-{[Dimethyl(oxo)-λ^6-sulfanylidene]amino}pyrazin-2-yl)-6-{[4-(morpholin-4-yl)phenyl]amino}-2-(prop-2-en-1-yl)-1H,2H,3H-pyrazolo[3,4-d]pyrimidin-3-one]	0.6
C=CCn1c(=O)c2cnc(Nc3ccc(N4CCOCC4)cc3)nc2n1-c1nccc(N=S(C)(C)=O)n1 [Example 52, 1-(4-{[Dimethyl(oxo)-λ^6-sulfanylidene]amino}pyrimidin-2-yl)-6-{[4-(morpholin-4-yl)phenyl]amino}-2-(prop-2-en-1-yl)-1H,2H,3H-pyrazolo[3,4-d]pyrimidin-3-one]	0.8
COC[C@@H]1CN(c2ccc(Nc3ncc4c(=O)n(C(C)C)n(-c5cccc(N=S(C)(C)=O)n5)c4n3)cc2)CCO1 [Example 53, 1-(6-{[Dimethyl(oxo)-λ^6-sulfanylidene]amino}pyridin-2-yl)-6-({4-[(2S)-2-(methoxymethyl)morpholin-4-yl]phenyl}amino)-2-(propan-2-yl)-1H,2H,3H-pyrazolo[3,4-d]pyrimidin-3-one]	0.5
